Results as given in the supplement of paper PMC10307832.

Experiments:
Test in all cases: relative viability (nuclei count vs DMSO), 5 days (fraction); higher = more cells survive
IPA-3 + Navitoclax = compound: C1=CC=C2C(=C1)C=CC(=C2SSC3=C(C=CC4=CC=CC=C43)O)O [IPA-3] + CC1(C)CCC(c2ccc(Cl)cc2)=C(CN2CCN(c3ccc(C(=O)NS(=O)(=O)c4ccc(N[C@H](CCN5CCOCC5)CSc5ccccc5)c(S(=O)(=O)C(F)(F)F)c4)cc3)CC2)C1 [Navitoclax] (partner 0.5 µM)
Method in brief: (§1)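 Lung cancer cell lines in 1536-well plates got either a single drug or a fixed anchor-drug dose together with five library-drug doses (not always all listed) in √10 steps, by pin tool, on the day after seeding. Nuclei were counted after 5 days, and relative viability is the treated-to-vehicle ratio of nuclei counts. Values are medians of duplicate plates.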

IPA-3 + AZD7762 = compound: C1=CC=C2C(=C1)C=CC(=C2SSC3=C(C=CC4=CC=CC=C43)O)O [IPA-3] + NC(=O)Nc1cc(-c2cccc(F)c2)sc1C(=O)N[C@H]1CCCNC1 [AZD7762] (partner 0.2 µM)
Method in brief: as §1

[1] = compound: Cc1ccc(-n2nc(C(C)(C)C)cc2NC(=O)Nc2ccc(OCCN3CCOCC3)c3ccccc23)cc1 [Doramapimod] + CC(=O)c1c(C)c2cnc(Nc3ccc(N4CCNCC4)cn3)nc2n(C2CCCC2)c1=O [Palbociclib] (partner 0.5 µM)
Method in brief: as §1

RAF265 + Palbociclib = compound: Cn1c(Nc2ccc(C(F)(F)F)cc2)nc2cc(Oc3ccnc(-c4ncc(C(F)(F)F)[nH]4)c3)ccc21 [RAF265] + CC(=O)c1c(C)c2cnc(Nc3ccc(N4CCNCC4)cn3)nc2n(C2CCCC2)c1=O [Palbociclib] (partner 0.5 µM)
Method in brief: as §1

Cell Line	relative viability (IPA-3 + Navitoclax; first compound 0.2 µM)	relative viability (IPA-3 + Navitoclax; first compound 0.6325 µM)	relative viability (IPA-3 + Navitoclax; first compound 2 µM)	relative viability (IPA-3 + Navitoclax; first compound 6.325 µM)	relative viability (IPA-3 + Navitoclax; first compound 20 µM)	relative viability (IPA-3 + AZD7762; first compound 0.2 µM)	relative viability (IPA-3 + AZD7762; first compound 0.6325 µM)	relative viability (IPA-3 + AZD7762; first compound 2 µM)	relative viability (IPA-3 + AZD7762; first compound 6.325 µM)	relative viability (IPA-3 + AZD7762; first compound 20 µM)	relative viability ([1]; first compound 0.02 µM)	relative viability ([1]; first compound 0.06325 µM)	relative viability ([1]; first compound 0.2 µM)	relative viability ([1]; first compound 0.6325 µM)	relative viability ([1]; first compound 2 µM)	relative viability (RAF265 + Palbociclib; first compound 0.01 µM)	relative viability (RAF265 + Palbociclib; first compound 0.03162 µM)	relative viability (RAF265 + Palbociclib; first compound 0.1 µM)	relative viability (RAF265 + Palbociclib; first compound 0.3162 µM)	relative viability (RAF265 + Palbociclib; first compound 1 µM)
NCI-H2126	0.861	0.816	0.828	0.892	0.891	1.05	0.974	1	0.958	1.05	0.378	0.352	0.373	0.336	0.326	0.373	0.354	0.377	0.361	0.365
NCI-H838	1.35	1.07	1.24	1.1	1.25	1.05	0.94	1	0.967	1.08	0.218	0.217	0.203	0.225	0.199	0.203	0.222	0.193	0.176	0.154
NCI-H2085	1.15	0.985	1.25	1.14	1.18	1.11	0.956	1.02	0.893	1.21	0.525	0.527	0.5	0.52	0.529	0.49	0.477	0.483	0.506	0.52
NCI-H460	1.45	0.968	1.45	1.04	1.09	0.756	0.704	0.632	0.7	0.634	0.197	0.195	0.208	0.279	0.141	0.203	0.203	0.171	0.2	0.0711
RERF-LC-KJ	1.53	0.879	1.1	0.877	1.06	1.08	0.955	1.01	0.921	1.15	1.11	1.04	1.06	1.17	1.2	1.06	1.23	1.05	0.885	0.832
HCC-15	0.693	0.65	0.642	0.725	0.748	1.48	1.29	1.18	1.18	1.37	0.548	0.772	0.755	0.686	0.525	0.71	0.825	0.672	0.537	0.27
H3255	0.543	0.523	0.446	0.566	0.603	1.03	0.919	0.865	0.912	1	0.334	0.302	0.318	0.292	0.345	0.323	0.316	0.321		0.331
NCI-H1792	0.939	0.665	0.55	0.675	0.825	0.97	0.519		0.604	0.572	0.701	0.645	0.598	0.596	0.546	0.658	0.676	0.758	0.474	0.298
NCI-H2087	1.15	0.863	0.837	0.859	0.926	1.52	1.29	1.43	1.07	1.35	0.237	0.215	0.293	0.27	0.219	0.238	0.207	0.181	0.164	0.159
EMC-BAC-2	1.38	1.11	1.16	1.09	1.32	1.15	1.17	1.12	1.08	1.16	0.512	0.501	0.508	0.503	0.465	0.533	0.431	0.373	0.345	0.176
NCI-H1355	1.08	0.867	0.999	1.03	1.09	0.807	0.764	0.73	0.827	0.719	0.412	0.373	0.413	0.385	0.368	0.449	0.364	0.328	0.248	0.181
NCI-H23	1.14	0.709	0.858	0.991	1.1	0.207	0.274	0.261	0.32	0.363	0.458	0.485	0.482	0.52	0.568	0.499	0.342	0.304	0.262	0.206
NCI-H1651	1.06		0.998	1.1	1.19	0.573	0.473	0.411	0.554	0.499	0.478	0.523	0.47	0.511	0.516	0.508	0.517	0.504	0.479	0.47
NCI-H1975	1.22	0.932	1.06	1.17	1.17	0.825	0.731	0.778	0.868	0.775	0.583	0.576	0.488	0.596	0.512	0.609	0.396	0.263	0.184	0.182
HCC-44	1.11	0.969	0.977	1	0.942	0.963	0.998	1.02	1	0.907	0.96	1	0.97	0.904	0.891	1.01	0.908	0.96	1.04	1.01
LOU-NH91	0.705	0.67	0.744	0.67	0.868	0.8	0.747	0.799	0.76	0.788	0.531	0.564	0.535	0.528	0.509	0.565	0.524	0.55	0.537	0.436

Cell Line	relative viability (IPA-3 + Navitoclax; first compound 0.2 µM)	relative viability (IPA-3 + Navitoclax; first compound 0.6325 µM)	relative viability (IPA-3 + Navitoclax; first compound 2 µM)	relative viability (IPA-3 + Navitoclax; first compound 6.325 µM)	relative viability (IPA-3 + Navitoclax; first compound 20 µM)	relative viability (IPA-3 + AZD7762; first compound 0.2 µM)	relative viability (IPA-3 + AZD7762; first compound 0.6325 µM)	relative viability (IPA-3 + AZD7762; first compound 2 µM)	relative viability (IPA-3 + AZD7762; first compound 6.325 µM)	relative viability (IPA-3 + AZD7762; first compound 20 µM)	relative viability ([1]; first compound 0.02 µM)	relative viability ([1]; first compound 0.06325 µM)	relative viability ([1]; first compound 0.2 µM)	relative viability ([1]; first compound 0.6325 µM)	relative viability ([1]; first compound 2 µM)	relative viability (RAF265 + Palbociclib; first compound 0.01 µM)	relative viability (RAF265 + Palbociclib; first compound 0.03162 µM)	relative viability (RAF265 + Palbociclib; first compound 0.1 µM)	relative viability (RAF265 + Palbociclib; first compound 0.3162 µM)	relative viability (RAF265 + Palbociclib; first compound 1 µM)
NCI-H441	0.814		0.405	0.216	0.771	1.32	0.972	1.33	1.21	1.22	0.197	0.221	0.203	0.191	0.219	0.212	0.237	0.233	0.171	0.183
NCI-H647	1.54	1.02	1.15	0.589	0.554	0.675	0.408	0.555	0.402	0.0953	0.346	0.335	0.375	0.404	0.345	0.335	0.401	0.196	0.228	0.218
NCI-H1915	0.794	0.817	0.782	0.782	0.738	0.77	0.713	0.693	0.68	0.694	0.507	0.547	0.469	0.525	0.487	0.525	0.435	0.438	0.236	0.147
NCI-H1734	1.1	0.834	0.781	0.844	1.02	0.637	0.508	0.624	0.571	0.496	0.204	0.308	0.314	0.299	0.27	0.384	0.319	0.324	0.286	0.221
NCI-H1993	0.973	0.911	0.896	0.894	0.838	0.971	0.922	0.85	0.738	0.726	0.641	0.58	0.621	0.596	0.504	0.584	0.595	0.661	0.575	0.507
LK-2	0.983	0.881	0.81	1.05	1.17	0.456	0.394	0.355	0.672	0.397	0.515	0.576	0.54	0.518	0.413	0.558	0.679	0.722	0.804	0.364
HCC-78	0.915	0.75	0.706	0.764	1.01	0.712	0.625	0.671	0.697	0.904	0.469	0.511	0.505	0.509	0.568	0.513	0.476	0.458	0.394	0.463
NCI-H2405	0.993	0.989	0.929	0.892	0.984	0.89	0.806	0.847	0.771	0.73	0.531	0.487	0.505	0.575	0.495	0.552	0.497	0.499	0.491	0.282
HOP-62	1.08	0.9	1	0.943	1.34	0.787	0.828	0.657	0.606	0.661	0.369	0.483	0.497	0.524	0.485	0.416	0.457	0.423	0.392	0.216
BEN	0.0641	0.0847	0.0621	0.0718	0.0865	0.726	0.656	0.801	0.767	0.672	0.462	0.459	0.504	0.387	0.541	0.459	0.477	0.509	0.468	0.441
ChaGo-K-1	1.07	1	0.836	1.06	1.17	0.986	0.908	0.859	0.952	0.946	0.928	0.906	0.918	0.942	0.823	0.935	0.951	0.89	0.844	0.607
NCI-H1755	1.07	1.01	1	1.03	1.02	0.55	0.448	0.434	0.486	0.476	0.478	0.484	0.444	0.416	0.418	0.385	0.445	0.462	0.414	0.309
LC-2-ad	0.526	0.334	0.444	0.454	0.685	0.896	0.873	0.899	0.897	0.96	0.521	0.467	0.502	0.529	0.529	0.488	0.499	0.55	0.58	0.29
NCI-H1666	1.07	0.981	1.08	0.962	0.863	0.866	0.815	0.788	0.962	0.905	0.734	0.641	0.69	0.704	0.613	0.612	0.577	0.595	0.663	0.585
201T	1.21	1.19	1.21	1.22	1.18	0.641	0.584	0.724	0.699	0.828	0.363	0.351	0.321	0.368	0.336	0.344	0.326	0.369	0.377	0.338
